Tests used:
[1] = tested on: 24OHase mRNA in OVCAR-3 cells; test: Quantitative RT-PCR of 24OHase mRNA; format: cell-based, human; settings: 100 nM
Experimental: Ethanol was used as a vehicle, and it was also added to the control cells. For RNA extraction, the cells were collected 4, 6 and 24 hr after the treatment with vitamin D compound or vehicle. RNA extractions were done with TRIZOL reagent (GIBCO Invitrogen Corporation, Paisley, UK). The integrity of RNA samples was confirmed on gel electrophoresis. […] The reactions for 24-hydroxylase were performed in the LightCycler instrument (Roche Diagnostics, Basel, Switzerland) from 300 ng total RNA. PBGD (human porphobilinogendeaminase) mRNA was used as an […] control. […] Nucleotides, Tth DNA polymerase (DNA polymerase and reverse transcriptase activity), SYBR Green I and reaction buffer were included in the LightCycler-RNA Master SYBR Green I kit (Roche Diagnostics). […] Cell. […] Detection of fluorescent product was performed at the end of the extension step of each cycle. To verify the specific products, melting curve analysis and gel electrophoresis were done. The data were quantified by the Fit Points method with LightCycler Data Analysis software. […] Hormone treatments and RT-PCR were done twice.

[2] = tested on: OVCAR-3 ovarian cancer cells; test: Cell growth, methylene blue uptake (Experiment VI); format: cell-based, human; settings: 200 nM VID400 with calcitriol
Experimental: Culture conditions were the same as for Experiment I. Cell growth was measured using uptake of methylene blue (0.5% in 50% ethanol), followed by air drying and release of the dye in 1% sodium N-lauroyl sarcosine in PBS.

| SMILES | induction of 24OHase mRNA expression ([1]; 6 hr treatment) [fold] | induction of 24OHase mRNA expression ([1]; 24 hr treatment) [fold] | effect on cell growth [2] |
| --- | --- | --- | --- |
| C=C1CC[C@H](O)C/C1=C/C=C1\CCC[C@]2(C)[C@@H]([C@H](C)CCCC(C)(C)O)CC[C@@H]12 [25(OH)D3, monohydroxyvitamin D3] | 3 | 0.5 | – |
| O=C(NC[C@@H](c1ccccc1)n1ccnc1)c1ccc(-c2ccc(Cl)cc2)cc1 [VID400, 2-(R)-4′-Chlorobiphenyl-4-carboxylic acid (2-imidazol-1-yl-2-phenyl-ethyl)-amide] | – | – | produced a further inhibition which was synergistic with calcitriol |
